Values after ≈ are worked out from the molar mass of the structure shown. Like-named read-outs stand apart in the source and are kept apart here. Ends that are not written are not given here.
Legend:
P.aeruginosa 27853 = assay type: cell-based, Pseudomonas aeruginosa ATCC 27853
Excerpt: (§1) The tested strains were kindly provided by the laboratory of Veterinary Microbiology and Immunology, the College of Veterinary Medicine, Northeast Agricultural University (gram-negative bacteria, Salmonella enterica serovar typhimurium C77-31, Salmonella typhimurium ATCC 14028, Escherichia coli ATCC 25922, Pseudomonas aeruginosa ATCC 27853 and gram-positive bacteria, Staphylococcus aureus ATCC 29213, Staphylococcus aureus ATCC 43300, Staphylococcus epidermidis ATCC 12228, Staphylococcus aureus ATCC 25923).
(§2) The famous microtiter dilution, National Committee for Clinical Laboratory Standards, was adopted to measure the antimicrobial ability of the engineering peptides ([Chou et al., 2016]). In brief, the 50μl with serial dilution was incubated with the same volume bacteria (1×10^5CFU/ml in midi-logarithmic phase) in a 96-well plate 18–24h at 37°C. The positive control was the bacteria treated with culture medium and the negative control was merely culture medium. The MICs (minimum inhibitory concentrations) were defined as the lowest concentration of peptides that prevented the production of visible turbidity ([Tossi et al., 2000]).

S.aureus 29213 = assay type: cell-based, Staphylococcus aureus ATCC 29213
Excerpt: as §1, §2

S.aureus 25923 = assay type: cell-based, Staphylococcus aureus ATCC 25923
Excerpt: as §1, §2

MRSA 43300 = assay type: cell-based, Staphylococcus aureus ATCC 43300; conditions: microtiter dilution, 1×10^5CFU/ml, 18–24h at 37°C, visible turbidity
Excerpt: as §1, §2

[1] = system: panel of gram-negative and gram-positive bacteria; conditions: over the eight strains of Table 2
Description: as §2

IPEC-J2 cells = assay type: cell-based, porcine; conditions: for Therapeutic index (TI): IPEC-J2, ratio of IC50 to GM
Description: (§3) The MTT (3-[4,5 dimethylthiozol-2-yl]-2,5-diphenylterazoliumbromide) dye was selected to analyze the cytotoxicity of peptides against the murine macrophage cell RAW 264.7 (National Collection of Authenticated Cell Cultures, Shanghai, China), human embryonic kidneys (HK293T), and the porcine intestinal epithelial cells (IPEC-J2) as in our previously study ([Li et al., 2020]). In short, the cells (10^4 cells/well) were seeded into 96-well plates and were cultivated overnight. Then the peptides with different final concentration (2μM, 4μM, 8μM, 16μM, 32μM, 64μM, and 128μM) were introduced into the plate and challenged with cells for 24h. After overnight incubation, the 50μl MTT (0.5mg/ml) was added into the cell cultures for 4h. Then the plate was centrifuged to discard the supernatants and obtain the formazan crystals. The DMSO (dimethyl sulfoxide) was employed as a solvent to dissolve the formazan crystals on the bottom of the plate and the optical density was read at 492nm with a microplate reader.

[2] = system: hRBC, IPEC-J2, HEK 293T, RAW264.7
Description: Besides, the therapeutic index of peptide in the mammalian eukaryotic cell (RAW 264.7, HEK 293T, and IPEC J2) was also calculated to study the biocompatibility of peptides.

[3] = system: Pseudomonas aeruginosa ATCC 27853; experiment: Subcutaneous abscess model; conditions: 5mg/kg
S.typhimurium 7731 = assay type: cell-based, Salmonella enterica serovar typhimurium C77-31
Excerpt: as §1

S.typhimurium 14028 = assay type: cell-based, Salmonella typhimurium ATCC 14028
Excerpt: as §1

E. coli 25922 = assay type: cell-based, Escherichia coli ATCC 25922
Excerpt: as §1

S.epidermidis 12228 = assay type: cell-based, Staphylococcus epidermidis ATCC 12228
Excerpt: as §1

[4] = system: human red blood cells (hRBCs); experiment: Hemolytic activity; assay type: cell-based; conditions: for HC5 (MHC), lowest concentration that caused 5% hemolysis: hRBC in PBS pH 7.2, 1h at 37°C, absorbance 570nm, vs 0.1% Triton X-100, highest test concentration 128μM; for Therapeutic index (TI): hRBC, ratio of MHC to GM
Excerpt: The hemolytic activity of peptides was reflected by the releasing amount of hemoglobin from erythrocytes lysis induced by peptides ([Dong et al., 2014a]). The informed consent was obtained from the volunteers (3 healthy 25-year-old male volunteers) before the experiment. In brief, the human red blood cells (hRBCs), donated by volunteer, were collected, washed, and resuspended in PBS at pH 7.2. The peptides were serially diluted in PBS at different concentrations in a 96-well cell cultures plate and incubated with 50μl hRBCs for 1h at 37°C. The 0.1% Trition X-100 was selected as the treatment of positive control and the negative control was the hRBCs treated with PBS. After 1h incubation, the supernatant, obtained by centrifuging the plate 1,000g for 5min, was transferred to a brand-new plate for absorbance detection at 570nm. The releasing amount of hemoglobin was converted to the percent hemolysis against to 0.1% Triton X-100 treatment. The lowest concentration caused 5% hemolysis of hRBCs and was defined as the lowest hemolytic concentration of antimicrobial peptide.

HEK 293T cells = assay type: cell-based, human; conditions: ratio of IC50 to GM
Description: as §3

RAW 264.7 cells = assay type: cell-based, murine; conditions: RAW264.7; ratio of IC50 to GM
Description: as §3

[5] = microtiter dilution, 1×10^5CFU/ml, 18–24h at 37°C, visible turbidity

| Compound | MIC (MRSA 43300) [µM] | GMMIC, geometric mean of the MICs [1] [µM] | MIC (S.typhimurium 7731) [µM] | MIC (S.typhimurium 14028) [µM] | MIC (E. coli 25922) [µM] | MIC (P.aeruginosa 27853; 27853) [µM] | MIC (S.aureus 29213; 29213) [µM] | MIC (S.epidermidis 12228) [µM] | MIC (S.aureus 25923; 25923) [µM] | HC5 (MHC), lowest concentration that caused 5% hemolysis [4] [µM] | Therapeutic index (TI) [4] | Therapeutic index (TI) (IPEC-J2 cells) | Therapeutic index (TI) (HEK 293T cells) | Therapeutic index (TI) (RAW 264.7 cells) | GMTI, geometric mean of TI of various cell lines [2] | also measured |
| --- | --- | --- | --- | --- | --- | --- | --- | --- | --- | --- | --- | --- | --- | --- | --- | --- |
| CC[C@H](C)[C@H](NC(=O)CN)C(=O)NCC(=O)N[C@@H](C)C(=O)N[C@H](C(=O)N[C@@H](CC(C)C)C(=O)N[C@@H](CCCCN)C(=O)N[C@H](C(=O)N[C@@H](CC(C)C)C(=O)N[C@H](C(=O)N[C@H](C(=O)NCC(=O)N[C@@H](CC(C)C)C(=O)N1CCC[C@H]1C(=O)N[C@@H](C)C(=O)N[C@@H](CC(C)C)C(=O)N[C@H](C(=O)N[C@@H](CO)C(=O)N[C@@H](Cc1c[nH]c2ccccc12)C(=O)N[C@H](C(=O)N[C@@H](CCCCN)C(=O)N[C@@H](CCCNC(=N)N)C(=O)N[C@@H](CCCCN)C(=O)N[C@@H](CCCNC(=N)N)C(=O)N[C@@H](CCC(N)=O)C(=O)N[C@@H](CCC(N)=O)C(N)=O)[C@@H](C)CC)[C@@H](C)CC)[C@@H](C)O)[C@@H](C)O)C(C)C)C(C)C [Melittin, reference compound] | 4 (≈ 11.4 µg/mL) | 1.68 | – | – | – | – | – | – | – | – | – | – | – | – | – | MIC (P.aeruginosa 27853; [5]): 2 µM (≈ 5.69 µg/mL); MIC (S.aureus 29213; [5]): 4 µM (≈ 11.4 µg/mL); MIC (S.aureus 25923; [5]): 2 µM (≈ 5.69 µg/mL); cell viability (IPEC-J2 cells; IPEC J2, MTT, 24h, 32μM): below 5%; IC50 (IPEC-J2 cells; IPEC-J2, MTT, 24h, tested 2–128μM): 3.34 µM; GMTI, geometric mean of TI of various cell lines ([2]; hRBC, IPEC-J2, HEK 293T, RAW264.7): 1.71 |
| O=C(O)c1cn(C2CC2)c2cc(N3CCNCC3)c(F)cc2c1=O [ciprofloxacin, reference compound] | – | – | – | – | – | – | – | – | – | – | – | – | – | – | – | IL-1β in serum ([3]; Day 3, ELISA, saline 95.99±4.31): 72.18 ± 3.54 pg/mL; IL-1α in serum ([3]; Day 3, ELISA, saline 99.95±4.71): 80.08 ± 4.04 pg/mL; TNF-α in serum ([3]; Day 3, ELISA, saline 1020.654±51.08): 773.35 ± 40.55 pg/mL; IL-2 in serum ([3]; Day 3, ELISA, saline 1492.65±48.11): 1250.826 ± 43.60 pg/mL; histological examination of abscess lesion, dermal tissue structures ([3]; HE staining, Day 3): relative integrity |
| VKKLVKKLVKKAVKKA-NH2 [VL2] | >64 | 117.38 | >64 | >64 | >64 | 64 | >64 | >64 | >64 | >128 | >1.09 | 87.76 | 71.65 | 64.03 | >25.74 | – |
| VKKLVKKLVKKAVKKL-NH2 [VL4] | – | – | 16 | 32 | 16 | 8 | 16 | 32 | 16 | – | – | – | – | – | >104.47 | – |
| VKKLVKKLVKKLVKKA-NH2 [VL3] | – | – | 32 | 32 | 16 | 8 | 16 | 32 | 32 | – | – | – | – | – | >122.44 | – |
| VKKLVKKLVKKLVKKL-NH2 [VL5] | 8 | 4.76 | 2 | 4 | 8 | 2 | 8 | 4 | 8 | >128 | > 26.89 | 957.83 | 1574.26 | 404.20 | >357.80 | TI (hRBC) fold smaller than VW5 [4]: about 2.8 fold |
| VKKWVKKAVKKWVKKA-NH2 [VW1] | >64 | 76.11 | >64 | 64 | 64 | 32 | 64 | 64 | >64 | >128 | > 1.68 | 120.77 | 86.82 | 87.91 | >35.28 | – |
| VKKWVKKWVKKAVKKA-NH2 [VW2] | 64 | 41.50 | 64 | 64 | 8 | 8 | 64 | 64 | 64 | >128 | > 3.08 | 136.45 | 144.05 | 136.50 | >53.63 | – |
| VKKWVKKWVKKAVKKW-NH2 [VW3] | 8 | 7.34 | 8 | 8 | 4 | 4 | 16 | 8 | 8 | >128 | > 17.44 | 646.97 | 1449.42 | 647.10 | >320.73 | – |
| VKKWVKKWVKKWVKKA-NH2 [VW4] | 4 | 3.36 | 2 | 4 | 4 | 2 | 4 | 4 | 4 | >128 | > 38.1 | 1855.95 | 2751.71 | 1855.65 | >775.15 | – |

Reference: publication PMC8548882, “The Trp-rich Antimicrobial Amphiphiles With Intramolecular Aromatic Interactions for the Treatment of Bacterial Infection” (Frontiers in Microbiology, 2021)
